Data published in ChEMBL document CHEMBL4811283, “New camptothecin derivatives for generalized oncological chemotherapy: Synthesis, stereochemistry and biology” (Bioorg Med Chem Lett, 2021).

Experiments:
HT-29 = assay: Cytotoxicity against human HT-29 cells assessed as inhibition of cell growth measured after 72 hrs; assay type: functional, cell-based; conditions: HT-29, 72 h
HL-60 = assay: Cytotoxicity against human HL-60 cells assessed as inhibition of cell growth measured after 72 hrs; assay type: functional, cell-based; conditions: HL-60, 72 h
CCD-841CoN = assay: Cytotoxicity against human CCD-841CoN cells assessed as inhibition of cell growth measured after 72 hrs; assay type: cell-based
MCF7 = assay: Cytotoxicity against human MCF7 cells assessed as inhibition of cell growth measured after 72 hrs; assay type: functional, cell-based; conditions: MCF7, 72 h
A549 = assay: Cytotoxicity against human A549 cells assessed as inhibition of cell growth measured after 72 hrs; assay type: functional, cell-based; conditions: A549, 72 h

## CCc1c2c(nc3ccc(O)c(CN4CCC4)c13)-c1cc3c(c(=O)n1[C@@H]2CO)COC(=O)[C@]3(O)CC
HT-29
  IC50: 2.5 µM
HL-60
  IC50: 0.113 µM
CCD-841CoN
  IC50: > 1000 µM
MCF7
  IC50: 6.7 µM
A549
  IC50: 1.17 µM

## CCc1c2c(nc3ccc(O)cc13)-c1cc3c(c(=O)n1C2)COC(=O)[C@]3(O)CC [7-ETHYL-10-HYDROXYCAMPTOTHECIN]
HT-29
  IC50: 0.02 µM
HL-60
  IC50: 0.002 µM
CCD-841CoN
  IC50: 4.98 µM
MCF7
  IC50: 0.66 µM
A549
  IC50: 0.028 µM

## CCc1c2c(nc3ccc(O)cc13)-c1cc3c(c(=O)n1[C@H]2CO)COC(=O)[C@]3(O)CC
HT-29
  IC50: 9.48 µM
HL-60
  IC50: 0.722 µM
CCD-841CoN
  IC50: 382 µM
MCF7
  IC50: 15.9 µM
A549
  IC50: 4.27 µM

## CCc1c2c(nc3ccc(O)cc13)-c1cc3c(c(=O)n1[C@@H]2CN1CCCC1)COC(=O)[C@]3(O)CC
HT-29
  IC50: 0.493 µM
HL-60
  IC50: 0.007 µM
CCD-841CoN
  IC50: 21.8 µM
MCF7
  IC50: 0.906 µM
A549
  IC50: 0.272 µM

## CCc1c2c(nc3ccc(O)cc13)-c1cc3c(c(=O)n1[C@H]2CN1CCCC1)COC(=O)[C@]3(O)CC
HT-29
  IC50: 0.598 µM
HL-60
  IC50: 0.011 µM
CCD-841CoN
  IC50: 24.4 µM
MCF7
  IC50: 0.81 µM
A549
  IC50: 0.204 µM

## CCc1c2c(nc3ccc(OC(=O)N4CCC(N5CCCCC5)CC4)cc13)-c1cc3c(c(=O)n1C2)COC(=O)[C@]3(O)CC [IRINOTECAN]
HT-29
  IC50: 6.85 µM
HL-60
  IC50: 4.24 µM
CCD-841CoN
  IC50: 90.2 µM
MCF7
  IC50: 14.1 µM
A549
  IC50: 26.7 µM

## C=c1c2c(CC)c3cc(O)ccc3nc2c2cc3c(c(=O)n12)COC(=O)[C@]3(O)CC
HT-29
  IC50: 0.15 µM
CCD-841CoN
  IC50: 92.2 µM
A549
  IC50: 1.94 µM

## CCc1c2c(nc3ccc(O)c(CO)c13)-c1cc3c(c(=O)n1C2)COC(=O)[C@]3(O)CC
HT-29
  IC50: 0.68 µM
CCD-841CoN
  IC50: > 1000 µM
A549
  IC50: 11 µM

## CCc1c2c(nc3ccc(O)cc13)-c1cc3c(c(=O)n1[C@@H]2CO)COC(=O)[C@]3(O)CC
HT-29
  IC50: 14.8 µM
HL-60
  IC50: 1.89 µM
CCD-841CoN
  IC50: 62 µM
MCF7
  IC50: 14.9 µM
A549
  IC50: 6.54 µM

## CCc1c2c(nc3ccc(O)c(CN4CCC4)c13)-c1cc3c(c(=O)n1[C@H]2CO)COC(=O)[C@]3(O)CC
HT-29
  IC50: 6.98 µM
HL-60
  IC50: 0.334 µM
CCD-841CoN
  IC50: > 1000 µM
MCF7
  IC50: 11.1 µM
A549
  IC50: 5.22 µM

## CCc1c2c(nc3ccc(O)c(N(C)CCO)c13)-c1cc3c(c(=O)n1C2)COC(=O)[C@]3(O)CC
HT-29
  IC50: 0.15 µM
HL-60
  IC50: 0.009 µM
CCD-841CoN
  IC50: 36.1 µM
MCF7
  IC50: 1.21 µM
A549
  IC50: 0.403 µM
